Activity calls are given as the source filed them. No cut-off for these calls is given here.
How the values were obtained:
[1] = test system: HCT-116; test: Anticlonogenic activity against human HCT116 cells at 2 uM after 7 days using crystal violet staining; type: functional
[2] = test system: HCT-116; test: Antiproliferative activity against human HCT116 cells assessed as cell growth inhibition at 10 to 40 uM by WST-8 assay; type: functional, cell-based; conditions: TDE = time-dependent effect
[3] = test system: HCT-116; test: Induction of apoptosis in human HCT116 cells assessed as condensed chromatin at 10 uM after 48 hrs by fluorescence microscopy method; type: functional, cell-based
[4] = test system: HCT-116; test: Antiproliferative activity against human HCT116 cells assessed as cell growth inhibition after 12 to 48 hrs by WST-8 assay; type: functional, cell-based
[5] = test system: HCT-116; test: Induction of apoptosis in human HCT116 cells assessed as shrunken nuclei at 10 uM after 48 hrs by fluorescence microscopy method; type: functional, cell-based
[6] = test system: HCT-116; test: Induction of apoptosis in human HCT116 cells assessed as fragmented nuclei at 10 uM after 48 hrs by fluorescence microscopy method; type: functional, cell-based
[7] = test system: HCT-116; test: Induction of apoptosis in human HCT116 cells assessed as increase in cleaved PARP level at 10 uM by Western blot analysis; type: functional, cell-based; conditions: TDE = time-dependent effect
[8] = test system: HCT-116; test: Induction of apoptosis in human HCT116 cells assessed as accumulation of cleaved caspase-7 at 10 uM after 48 hrs by Western blot analysis; type: functional, cell-based

Row | SMILES | Activity [1] [%] | growth inhibition (GI) [2] | Activity [3] | growth inhibition (GI) [4] | Activity [5] | Activity [6] | Activity [7] | Activity [8]
1 | COc1cc2c(c(OC)c1OC)-c1c(cc3c(c1OC)OCO3)C[C@@H](C)[C@](C)(O)C2 | 50 | tde | Active | Dose-dependent effect | Active | Active | tde | Active
2 | COc1cc2c(c(OC)c1OC)-c1c(cc3c(c1OC)OCO3)C[C@H](C)[C@](C)(O)C2 | – | – | – | – | – | – | – | Active
